The record followed here is patent US11731946B2, “Broad spectrum antivirulence, anti-persistence compounds” (priority 2017, dated 2023).

Series [1] has as its system MvfR regulon. As to the kind of experiment: Quantification of pyocyanin (OD520nm of chloroform-extracted cultures). The settings on record: Pseudomonas aeruginosa; for IC50: read-out: IC50 pyocyanin (μM); for activity at 1 µM: read-out: pyocyanin @1 uM (%), compound at 1 uM; for activity at 10 µM: read-out: pyocyanin @10 uM (%), compound at 10 uM; for activity at 50 µM: read-out: pyocyanin @50 uM (%), compound at 50 uM. In kind it is cell-based, P. aeruginosa.

In series [2] the test system is MvfR regulon. In words: pqsA gene expression (pqsA-GFP reporter). The settings on record: Pseudomonas aeruginosa; for IC50: read-out: IC50 pqsA (μM); for activity at 10 µM: read-out: pqsA @10 uM (%), compound at 10 uM; for activity at 50 µM: read-out: pqsA @50 uM (%), compound at 50 uM. In kind it is cell-based, P. aeruginosa.
In the next series the target is T1, MvfR (Pseudomonas aeruginosa, UniProt Q9I4X0).
T1 construct: made in house
T1 sequence (Q9I4X0 91-332): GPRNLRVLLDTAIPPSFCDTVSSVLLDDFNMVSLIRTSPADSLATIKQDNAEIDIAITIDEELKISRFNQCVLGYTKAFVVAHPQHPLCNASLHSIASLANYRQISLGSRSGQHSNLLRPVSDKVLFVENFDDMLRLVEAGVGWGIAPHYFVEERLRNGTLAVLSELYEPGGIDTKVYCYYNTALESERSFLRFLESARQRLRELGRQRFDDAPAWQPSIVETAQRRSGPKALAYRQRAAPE
As to the kind of experiment: Surface plasmon resonance (SPR) binding to purified MvfR co-inducer binding domain. Also noted: species or system P. aeruginosa. As for the experimental part: Compounds identified to interfere with MvfR were confirmed for the direct physical interaction with this protein. Using SPR, the percentage of compound's binding to the purified MvfR protein was analyzed and used to determine the binding parameters (KD, kon and koff)—thus determining the kinetic of interaction with MvfR.
The recombinant MvfR co-inducer binding domain was purified using Ni-NTA chromatography, as previously reported (see e.g., Xiao et al, Microbiology, 2006, 152:1679-1686; Starkey et al, PLoS Pathog. 2014, 10:e1004321; and Kefala et al, Acta. Crystallogr. Sect. F. Struct. Biol. Cryst. Commun. 2012, 68:695-697). The purified protein was immobilized with the amine coupling method at a target level of 5000 RU on Chip. SPR was performed according to previously reported procedures (see e.g., Starkey et al, PLoS Pathog. 2014, 10:e1004321; Maura et al, ACS Chemical Biology, 2017, 12:1435-1443; and Kitao et al, MBIO, in press). […] Table 3 lists the steady-state KD data measured by SPR.
(SPR reads the build-up and loss of mass on a sensor chip optically.)

Series [3] is described as follows: Pharmacokinetics in mouse plasma and lung after single subcutaneous injection. In kind it is in vivo, mice. The settings on record: for stability in vivo (serum concentration): 10 mg/kg subcutaneous, over 24 h; for pharmacokinetics (in words): mouse, in vivo. The protocol:
FIGS. 1F-1G show pharmacokinetics measured in mouse plasma (FIG. 1F) and lung (FIG. 1G) following a single subcutaneous injection of Compounds 53, 54, or 72 at 10 mg/kg.

The subject of series [4] is PA14. As to the kind of experiment: Mouse thigh infection model (PA14). It is filed as in vivo, mice. As for the experimental part:
Mice were infected with 5×10^5 and 5×10^6 PA14 cells for the thigh and lung infection model respectively. FIGS. 5A-5C: Thigh model: treatment was initiated […] and repeated at 4, 8, 12 and 18 hours. FIG. 5A: monotherapy with Compound 72, 10 mg/kg (P<0.05 Mann Whitney test); FIG. 5B-5C. Combinatorial: Compound 72 (10 mg/kg) plus Ciprofloxacin 1 mg/kg (subtherapeutic dose) (FIG. 5B: P<0.05; Figure C: P>0.05; Mann Whitney test). CFUs were assessed 24 h post-infection in the thigh (FIG. 5A), liver (FIG. 5B) and spleen (FIG. 5C). Compound 72 was administered subcutaneously and ciprofloxacin intraperitoneally (IP). […] Mice were infected with 5×10^6 PA14 cells lung infection model. Compound 54 (10 mg/kg) plus ciprofloxacin 1 mg/kg treatment (subtherapeutic dose) was initiated at 2 h post-infection and repeated at 6, 12, and 18 h post-infection. CFUs were assessed 24 h post-infection in the lung. Compound 54 was administered subcutaneously and ciprofloxacin intraperitoneally (IP).
Thigh infection studies were performed using Compounds 54 and 72.

Series [5] concerns Pseudomonas aeruginosa MDR clinical isolates. As to the kind of experiment: Pyocyanin production in MDR clinical isolates. The settings on record: 10 μM. In kind it is cell-based. The protocol: Percentage of pyocyanin production is presented in presence of 10 μM of D57 or D88 compounds. Tukey's multiple comparisons test p<0.0001.
Pyocyanin levels were determined by measuring OD520nm of chloroform-extracted cultures.

Series [6] concerns Caco2 intestinal epithelial cells. In words: Survival of Caco2 cells after compound exposure. The settings on record: 25 μM, 3 hours exposure. In kind it is cell-based.
Another series in a line: Solubility. The settings on record: initial solubility studies; listed as D88. In kind it is physicochemical. The source says:
FIGS. 6A-6E show pharmacological properties of a representative group of MvfR inhibitors.

In series [7] the test system is P. aeruginosa MDR clinical isolates. In words: AT/P cell formation in MDR clinical isolates. In kind it is cell-based. The settings on record: 10 μM; MDR clinical isolates incl. mucoid strain from CF patients. The protocol: (§1) Statistical significance to the control was assessed using one-way ANOVA+Dunnett's post-test. P<0.001-0.005.
(§2) AT/P efficacy of compounds using CFU plating was assessed by growning over-night, cultures diluted 1:100 in triplicate in fresh LB medium in the presence or absence of inhibitor, and re-grown to an OD600 of 2.0 while shaking under aeration at 37° C. Before the antibiotic treatment, aliquots were plated to obtain reference colony counts. […] At 24-h and 48-h time points, the number of surviving bacteria were assessed by plating. The survival fraction of AT/P cells was calculated by dividing the number of surviving bacteria by the number of live bacteria that were present before the antibiotic treatment (reference datum) and expressed as a mean (±SD) of at least three replicate experiments. Using the same CFU plating assay, the efficacy of all compounds identified will be tested against additional antibiotic classes: b-lactams (ceftazidime, cefepime and imipenem), quinolones (ciprofloxacin, moxifloxacin, and levofloxacin), and aminoglycosides (gentamicin and tobramycicn).

The test system of the next series is PA clinical isolate PA14. As to the kind of experiment: Biofilm formation (microtiter biofilm assay). It is filed as cell-based, P. aeruginosa. The settings on record: 10 μM. The protocol:
as §1
Inhibition of biofilm formation was assessed by quantifying initiation of biofilm formation via assessment of surface adhesion of PA using the microtiter biofilm assay as described in O'Toole, G A. J. Vis. Exp. 2011, Microtiter Dish Biofilm Formation Assay. Using single optimized agents, this assay allowed for various concentrations of each compound and several incubation times to be investigated in an HTS manner.

The subject of the next series is Acenitobacter baumanii. In words: Activity against other bacterial pathogens (preliminary). In kind it is cell-based.
Series [8] concerns adhesive intestinal E. coli. Described as above. It is filed as cell-based.
In series [9] the test system is MvfR regulon. In words: LC/MS quantification of HAQs and related molecules in bacterial culture supernatants. It is filed as cell-based, P. aeruginosa. The settings on record: Pseudomonas aeruginosa.
Series [10] concerns PA14. As to the kind of experiment: Antibiotic tolerance/persister (AT/P) cell formation, meropenem, CFU plating. In kind it is cell-based, P. aeruginosa. The settings on record: 50 μM compound. As for the experimental part:
Wild type (PA14) P. aeruginosa was grown in liquid culture with or without Compound 54 and treated with meropenem according to published procedures (see e.g., Starkey et al, PLoS Pathog. 2014, 10:e1004321). Data are expressed as fraction of original culture surviving antibiotic treatment.
as §2

Setting [11] is: Steady State Binding Affinity KD (μM), SPR, steady state.
Setting [12] is: Steady State Binding Affinity KD [M], SPR, steady state.
[13] abbreviates: mean KD value, SPR, mean over the compounds named.

Structures are written as SMILES. Values after ≈ are worked out from the molar mass of the structure shown. Values joined by “and” are separate entries in the source; they are usually repeats but may differ in a detail not shown here. Equal entries are not always repeated. “Also recorded” adds a separate entry of the source. Where two headings read alike, the source gives them in different places.

The IC50 is the point on the concentration scale where inhibition reaches its midpoint. As usually defined, the Kd is the constant that tells how readily two partners part at equilibrium. The term half-life denotes how long it takes for the measured level to halve. As usually defined, the solubility is the concentration that dissolves in the medium under given conditions.

Take `N#Cc1ccc(NC(=O)CC(=O)Nc2ccc(Oc3ccccc3)cc2)cc1` [Compound 72]: the values for the IC50 in the series with MvfR regulon [1] and with MvfR regulon [2] were 0.891 µM and 0.52 µM, respectively. Also, the activity at 1 µM with MvfR regulon [1] came out at 14%. In addition, the activity at 10 µM in the series with MvfR regulon [1] came to 16.8%; with MvfR regulon [2], 1.08%. Further, the activity at 50 µM in the series with MvfR regulon [1] was 6.06%; in the series on MvfR regulon [2], 3.7%. Also, on MvfR (SPR), the “Signal Intensity Rmax” value was found to be 34.24. The figures for the Kd on MvfR (setting [11]), on MvfR (setting [12]) and on MvfR (setting [13]) were 1.09 µM, 1.09 µM and 0.25 µM, respectively. The “stability in vivo (serum concentration)” value in series [3] is given as “stable in vivo”. Also, the half-life in series [3] (mouse lung, 10 mg/kg SC, read-out: lung half-life (converted)) is 1.19 h; in series [3] (mouse plasma, 10 mg/kg SC, read-out: plasma half-life (converted)), 1.13 h. The Tlast in series [3] (mouse plasma, 10 mg/kg SC) was about 6 h. In series [3], the “pharmacokinetics (in words)” value is “promising pharmacokinetics”. For the same molecule, the “bacterial CFUs at the site of infection” value in the series with PA14 [4] (10 mg/kg SC, CFUs 24 h post-infection) is “decrease bacterial dissemination and titer at the infection site; also recorded: reduced bacterial CFUs”. The “potentiation of ciprofloxacin in reducing PA cells dissemination in spleen and liver” value in the series on PA14 [4] (10 mg/kg compound SC plus ciprofloxacin 1 mg/kg IP) is listed as “potentiated ciprofloxacin efficacy”. Besides, in series [5] (listed as D57), the “activity on pyocyanin production in MDR clinical isolates” value is “highly active; also recorded: confirmed”. In addition, the “toxicity to Caco2 (survival)” value in [6] is “not toxic”.
Turning to `N#Cc1ccc(NC(=O)C(F)C(=O)Nc2ccc(Oc3ccccc3)cc2)cc1` (stereo not drawn) [Compound 103], in the series with MvfR regulon [1], the IC50 worked out at 0.95 µM, the activity at 1 µM is 28.1%, the activity at 10 µM stood at 4.4% and the activity at 50 µM was 5.58%. Besides, the activity at 10 µM with MvfR regulon [2] was 1.95%. On MvfR (setting [13]), this molecule yielded a Kd of 0.25 µM. The molecule also showed a solubility in the series “Solubility” of 190 µg/mL (≈ 488 µM). Besides, in series [5] (listed as D88), the “activity on pyocyanin production in MDR clinical isolates” value is on record as “highly active; also recorded: confirmed”. Further, the “activity against antibiotic tolerant/persister cell formation” value in series [7] was “highly active”. In the series on PA clinical isolate PA14, the “activity against biofilm formation” value is “highly active”. Moreover, in the series with Acenitobacter baumanii, the “potency against Acenitobacter baumanii” value was “potent”. In addition, the “potency against adhesive intestinal E. coli” value in series [8] was “potent”.
With `N#Cc1ccc(NC(=O)CC(=O)Nc2ccc(Cl)cc2)cc1` [Compound 53], the IC50 in the series with MvfR regulon [1] was found to be 2.4 µM; in the series with MvfR regulon [2] it was 1.25 µM; with MvfR regulon [9] (PA14, read-out: IC50 2-AA (μM)), 5.6 µM; in the series on MvfR regulon [9] (PA14, read-out: IC50 DHQ (μM)), 9.1 µM; with MvfR regulon [9] (PA14, read-out: IC50 HHQ (μM)) it was 10.3 µM; in the series with MvfR regulon [9] (PA14, read-out: IC50 PQS (μM)), 8.3 µM. The IC50 with MvfR regulon [9] (read-out: IC50 AA (increase; μM)) was 14.5 µM; in the series on MvfR regulon [9] (read-out: IC50 HQNO (μM)), 7.3 µM. Besides, the activity at 50 µM worked out at 6.23% in the series on MvfR regulon [1]; 7.97% in the series with MvfR regulon [2]; 5.87% in the series with MvfR regulon [9] (read-out: 2-AA @50 uM); 739% in the series on MvfR regulon [9] (read-out: AA @50 uM); 10.3% with MvfR regulon [9] (read-out: DHQ @50 uM); 1.63% in the series on MvfR regulon [9] (read-out: HHQ @50 uM (%)). Moreover, the values for the activity at 50 µM with MvfR regulon [9] (read-out: HQNO @50 uM (%)) and with MvfR regulon [9] (read-out: PQS @50 uM (%)) were 13.9% and 8.37%, respectively. Moreover, in the series on MvfR regulon [2], the activity at 10 µM amounted to 1.55%. In addition, on MvfR (FIG. 1B), the “binding to MvfR (in words)” value is on record as “high affinity”. Also, at MvfR (SPR), the “Signal Intensity Rmax” value is reported as 26.52. The “binding intensity relative to parent Compound 1” value at MvfR (SPR) came to 40 times. Also, the Kd at MvfR (setting [11]) is 0.244 µM; at MvfR (setting [12]) it was 0.244 µM; on MvfR (setting [13]) it was ~0.25 µM and 0.25 µM. The inhibition of persistence entry with PA14 [10] is given as “inhibit persistence”. Further, the results for the “stability in vivo (serum concentration)” value in [3] and in [3] (listed as D41) were “stable in vivo” and “highly stable in vivo”, respectively. In addition, the “pharmacokinetics (in words)” value in [3] is listed as “promising pharmacokinetics”. Also, the “toxicity to Caco2 (survival)” value in [6] is on record as “not toxic”.
